Test results as given in ChEMBL document CHEMBL5375986, “Discovery of Lead 2-Thiazolylhydrazones with Broad-Spectrum and Potent Antifungal Activity” (J Med Chem, 2023).
≈ marks a conversion by molar mass, not a printed value.

Assays:
[1] = Antifungal activity against Cryptococcus gattii ATCC 24065 assessed as inhibition of fungal growth incubated for 24 to 48 hrs by CLSI protocol based broth microdilution method; assay type: functional, Cryptococcus gattii VGI; conditions: time 24-48 hrs
[2] = test system: Cryptococcus neoformans; assay: Antifungal activity against Cryptococcus neoformans ATCC 24067 assessed as inhibition of fungal growth incubated for 24 to 48 hrs by CLSI based broth microdilution method; assay type: functional; conditions: time 24-48 hrs
[3] = test system: Candida albicans; assay: Antifungal activity against Candida albicans SC5314 assessed as inhibition of fungal growth incubated for 24 to 48 hrs by CLSI protocol based broth microdilution method; assay type: functional; conditions: time 24-48 hrs
[4] = test system: Nakaseomyces glabratus; assay: Antifungal activity against Candida glabrata ATCC 2001 assessed as inhibition of fungal growth incubated for 24 to 48 hrs by CLSI protocol based broth microdilution method; assay type: functional; conditions: time 24-48 hrs
[5] = test system: Pichia kudriavzevii; assay: Antifungal activity against Candida krusei ATCC 20298 assessed as inhibition of fungal growth incubated for 24 to 48 hrs by CLSI protocol based broth microdilution method; assay type: functional; conditions: time 24-48 hrs
[6] = test system: Candida parapsilosis; assay: Antifungal activity against Candida parapsilosis ATCC 22019 assessed as inhibition of fungal growth incubated for 24 to 48 hrs by CLSI protocol based broth microdilution method; assay type: functional; conditions: Lodderomyces parapsilosis, time 24-48 hrs
[7] = test system: [Candida] auris; assay: Antifungal activity against Candida auris COLO 01 assessed as inhibition of fungal growth incubated for 24 to 48 hrs by CLSI protocol based broth microdilution method; assay type: functional; conditions: Candidozyma auris, time 24-48 hrs
[8] = test system: Candida tropicalis; assay: Antifungal activity against Candida tropicalis ATCC 750 assessed as inhibition of fungal growth incubated for 24 to 48 hrs by CLSI protocol based broth microdilution method; assay type: functional; conditions: time 24-48 hrs
[9] = Antifungal activity against Cryptococcus gattii VGI assessed as inhibition of fungal growth; assay type: functional
[10] = test system: Cryptococcus neoformans; assay: Antifungal activity against Cryptococcus neoformans assessed as inhibition of fungal growth; assay type: functional
[11] = test system: Candida albicans; assay: Antifungal activity against Candida albicans assessed as inhibition of fungal growth; assay type: functional
[12] = Cytotoxicity against human PBMC cells assessed as inhibition of cell growth incubated for 24 to 48 hrs by MTT assay; assay type: toxicity, cell-based

SMILES | MIC [1] | MIC [2] | MIC [3] | MIC [4] | MIC [5] | MIC [6] | MIC [7] | MIC [8] | MIC [9] | MIC [10] | MIC [11] | IC50 [12]
C/C(CCC(=O)O)=N\Nc1nc(-c2ccc(C#N)cc2)cs1 | 1.5 µM (≈ 0.472 µg/mL) | 1.5 µM (≈ 0.472 µg/mL) | 3.1 µM (≈ 0.975 µg/mL) | 49.7 µM (≈ 15.6 µg/mL) | 1.5 µM (≈ 0.472 µg/mL) | 6.2 µM (≈ 1.95 µg/mL) | 0.8 µM (≈ 0.251 µg/mL) | 24.8 µM (≈ 7.8 µg/mL) |  |  |  | 
CCOC(=O)C(C)=NNc1nc(-c2ccc(F)cc2)cs1 | > 125 µM | > 125 µM | > 125 µM | > 125 µM | 102 µM (≈ 31.3 µg/mL) | > 125 µM | 50.8 µM (≈ 15.6 µg/mL) | > 125 µM |  |  |  | 
C/C(CCC(=O)O)=N\Nc1nc(-c2ccc(F)cc2)cs1 | 3.2 µM (≈ 0.984 µg/mL) | 3.2 µM (≈ 0.984 µg/mL) | 3.2 µM (≈ 0.984 µg/mL) | 50.8 µM (≈ 15.6 µg/mL) | 1.6 µM (≈ 0.492 µg/mL) | 1.6 µM (≈ 0.492 µg/mL) | 0.8 µM (≈ 0.246 µg/mL) | 6.3 µM (≈ 1.94 µg/mL) |  |  |  | 
CCOC(=O)c1sc(N/N=C\C2CCCCC2)nc1C | > 125 µM | > 125 µM | > 125 µM | > 125 µM | > 125 µM | > 125 µM | > 125 µM | > 125 µM |  |  |  | 
C/C(CCC(=O)O)=N\Nc1nc(-c2ccccc2)cs1 | 6.7 µM (≈ 1.94 µg/mL) | 6.7 µM (≈ 1.94 µg/mL) | 3.4 µM (≈ 0.984 µg/mL) | 1.7 µM (≈ 0.492 µg/mL) | 13.5 µM (≈ 3.91 µg/mL) | 13.5 µM (≈ 3.91 µg/mL) | 3.4 µM (≈ 0.984 µg/mL) | 3.4 µM (≈ 0.984 µg/mL) |  |  |  | 
CCN1CCCC(/C=N/Nc2nc(-c3ccc(Br)cc3)cs2)C1 (stereo not drawn) | 72.9 µM (≈ 28.7 µg/mL) | 72.9 µM (≈ 28.7 µg/mL) | 39.8 µM (≈ 15.7 µg/mL) | > 125 µM | 2.5 µM (≈ 0.983 µg/mL) | 19.9 µM (≈ 7.83 µg/mL) | 19.9 µM (≈ 7.83 µg/mL) | 79.7 µM (≈ 31.4 µg/mL) |  |  |  | 
CCOC(=O)Cc1csc(NN=C(C)CCO)n1 | > 125 µM | > 125 µM | 115 µM (≈ 31.3 µg/mL) | 7.2 µM (≈ 1.95 µg/mL) | 3.6 µM (≈ 0.977 µg/mL) | 115 µM (≈ 31.3 µg/mL) | 115 µM (≈ 31.3 µg/mL) | 57.6 µM (≈ 15.6 µg/mL) |  |  |  | 
COc1ccc(-c2csc(NN=C(C)CCO)n2)cc1 |  |  |  |  |  |  |  |  | 0.9 µM (≈ 0.262 µg/mL) | 0.45 µM (≈ 0.131 µg/mL) |  | 
CCOC(=O)/C(C)=N\Nc1nc(C)c(C(=O)OCC)s1 | > 125 µM | > 125 µM | > 125 µM | > 125 µM | > 125 µM | > 125 µM | > 125 µM | 104 µM (≈ 31.3 µg/mL) |  |  |  | 
CCOC(=O)/C(C)=N/Nc1nc(-c2ccc(C#N)cc2)cs1 | 24.8 µM (≈ 7.8 µg/mL) | 49.7 µM (≈ 15.6 µg/mL) | 49.7 µM (≈ 15.6 µg/mL) |  | 99.4 µM (≈ 31.2 µg/mL) | 24.8 µM (≈ 7.8 µg/mL) | 24.8 µM (≈ 7.8 µg/mL) | > 125 µM |  |  |  | 
CCOC(=O)Cc1csc(N/N=C\C2CCCCC2)n1 | 106 µM (≈ 31.3 µg/mL) | 106 µM (≈ 31.3 µg/mL) | 52.9 µM (≈ 15.6 µg/mL) | > 125 µM | 0.8 µM (≈ 0.236 µg/mL) | 52.9 µM (≈ 15.6 µg/mL) | 52.9 µM (≈ 15.6 µg/mL) | 6.6 µM (≈ 1.95 µg/mL) |  |  |  | 
C/C(CCC(=O)O)=N\Nc1nc(-c2ccc(C)cc2)cs1 | 0.3 µM (≈ 0.091 µg/mL) | 0.7 µM (≈ 0.212 µg/mL) | 6.4 µM (≈ 1.94 µg/mL) |  | 6.4 µM (≈ 1.94 µg/mL) |  | 3.2 µM (≈ 0.971 µg/mL) | 51.4 µM (≈ 15.6 µg/mL) |  |  |  | 
CCOC(=O)/C(C)=N/Nc1nc(-c2ccc(Br)cc2)cs1 | 84.9 µM (≈ 31.3 µg/mL) | 84.9 µM (≈ 31.3 µg/mL) | 84.9 µM (≈ 31.3 µg/mL) | 21.2 µM (≈ 7.81 µg/mL) | 10.6 µM (≈ 3.9 µg/mL) | 84.9 µM (≈ 31.3 µg/mL) | 21.2 µM (≈ 7.81 µg/mL) | 21.2 µM (≈ 7.81 µg/mL) |  |  |  | 
CC(CCO)=NNc1nc(-c2ccc(C#N)cc2)cs1 |  |  |  |  |  |  |  |  | 0.12 µM (≈ 0.0344 µg/mL) | 0.12 µM (≈ 0.0344 µg/mL) | 1.95 µM (≈ 0.558 µg/mL) | 
C[C@@H]1[C@H](O)[C@@H](C)/C=C/C=C/C=C/C=C/C=C/C=C/C=C/[C@H](O[C@@H]2O[C@H](C)[C@@H](O)[C@H](N)[C@@H]2O)C[C@@H]2O[C@](O)(C[C@@H](O)C[C@@H](O)[C@H](O)CC[C@@H](O)C[C@@H](O)CC(=O)O[C@H]1C)C[C@H](O)[C@H]2C(=O)O [AMPHOTERICIN B] | 1.1 µM (≈ 1.02 µg/mL) | 0.5 µM (≈ 0.462 µg/mL) | 2.2 µM (≈ 2.03 µg/mL) | 1.1 µM (≈ 1.02 µg/mL) | 4.3 µM (≈ 3.97 µg/mL) | 2.2 µM (≈ 2.03 µg/mL) | 4.3 µM (≈ 3.97 µg/mL) | 0.5 µM (≈ 0.462 µg/mL) |  |  |  | 
CC[C@H](C)C[C@H](C)CCCCCCCCC(=O)N[C@H]1C[C@@H](O)[C@@H](NCCN)NC(=O)[C@@H]2[C@@H](O)CCN2C(=O)[C@H]([C@H](O)CCN)NC(=O)[C@H]([C@H](O)[C@@H](O)c2ccc(O)cc2)NC(=O)[C@@H]2C[C@@H](O)CN2C(=O)[C@H]([C@@H](C)O)NC1=O [CASPOFUNGIN] |  |  |  |  |  |  | 0.1 µM (≈ 0.109 µg/mL) |  |  |  |  | 
Nc1ccn([C@@H]2O[C@H](CO)[C@@H](O)[C@@H]2O)c(=O)n1 [CYTARABINE] |  |  |  |  |  |  |  |  |  |  |  | 181 µM
OC(Cn1cncn1)(Cn1cncn1)c1ccc(F)cc1F [FLUCONAZOLE] | 52.2 µM (≈ 16 µg/mL) |  | 1.6 µM (≈ 0.49 µg/mL) | 13.1 µM (≈ 4.01 µg/mL) | 104 µM (≈ 32 µg/mL) | 3.3 µM (≈ 1.01 µg/mL) |  | 0.8 µM (≈ 0.245 µg/mL) |  |  |  | 
Cc1ccc(NC(=O)c2ccc(CN3CCN(C)CC3)cc2)cc1Nc1nccc(-c2cccnc2)n1 [IMATINIB] |  |  |  |  |  |  |  |  |  |  |  | 159 µM
CCC(C)n1ncn(-c2ccc(N3CCN(c4ccc(OCC5COC(Cn6cncn6)(c6ccc(Cl)cc6Cl)O5)cc4)CC3)cc2)c1=O (stereo not drawn) [ITRACONAZOLE] | 2.8 µM (≈ 1.98 µg/mL) | 1.4 µM (≈ 0.988 µg/mL) | 0.7 µM (≈ 0.494 µg/mL) | 0.4 µM (≈ 0.282 µg/mL) | 2.8 µM (≈ 1.98 µg/mL) | 0.4 µM (≈ 0.282 µg/mL) | 0.4 µM (≈ 0.282 µg/mL) | 0.2 µM (≈ 0.141 µg/mL) |  |  |  | 
